Target: T1, mouse Tas2r108 (Mus musculus, UniProt Q9JKT3)
T1 construct: expressed in transfected cells; host or cells: HEK293T-Gα16gust44
T1 sequence (Q9JKT3 1-297): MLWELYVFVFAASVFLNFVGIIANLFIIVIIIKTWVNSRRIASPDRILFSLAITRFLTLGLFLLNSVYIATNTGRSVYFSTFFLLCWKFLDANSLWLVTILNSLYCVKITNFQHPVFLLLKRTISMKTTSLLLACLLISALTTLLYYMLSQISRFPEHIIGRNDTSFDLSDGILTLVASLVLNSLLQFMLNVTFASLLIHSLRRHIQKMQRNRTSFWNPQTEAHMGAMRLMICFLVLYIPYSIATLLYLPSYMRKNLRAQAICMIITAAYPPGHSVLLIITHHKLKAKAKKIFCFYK
Experiment: Calcium imaging assay (FLIPR), HEK293T-Gα16gust44 cells transfected with mouse Tas2r108
Type: cell-based
Description: This set of bile acids was chosen because of their commercial availability in high purities, their diversity within the class of bile acids and their previous detection and quantitation in human blood. Stock solutions were prepared in DMSO.
As basal growth medium for the HEK293T-Gα16gust44 cell line[17],[59] served Dulbecco’s modified eagle medium (DMEM) (Thermo Fisher Scientific, Darmstadt, Germany) supplemented with 10 % fetal bovine serum (Sigma-Aldrich, Steinheim, Germany), 2 mM L-glutamine (Sigma-Aldrich, Steinheim, Germany), 100 units/ml penicillin (Sigma Aldrich, Steinheim, Germany) and 100 µg/ml streptomycin (Sigma Aldrich, Steinheim, Germany). Growth conditions were 37 °C, 5 % CO2 and saturated air-humidity[60].
HEK293T-Gα16gust44 cells were seeded on poly-D-lysine (10 µg/ml) coated 96-well plates to reach a confluence of 40-60 % the next day. For transient transfection 150 ng of plasmid DNA containing the receptor of interest and 0.3 µl lipofectamine 2000 (Thermo Fisher Scientific, Darmstadt, Germany) per well were used and transfection took place according to the manual of lipofectamine 2000. […] The empty vector DNA (mock) was transfected as negative control[14],[41].
Cells were loaded using the calcium-sensitive fluorescent dye Fluo-4-AM (Abcam, Cambridge, Great Britain) in the presence of 2.5 mM probenecid (Sigma-Aldrich, Steinheim, Germany) the day after transfection[13],[41]. 1 h after loading, cells were washed with C1 buffer using a BioTek Cell Washer, incubated in the dark for half an hour and washed again. For automated agonist application and measurement of fluorescence changes, a FLIPR^TETRA device (Molecular Devices, San José, United States) was used. Viability of cells was tested by application of 100 nM Somatostatin 14 (Bachem, Bubendorf, Switzerland)[42].
Measured data were negative control corrected by subtracting the signal of the mock-transfected cells and exported to Microsoft Excel using the FLIPR software ScreenWorks 4.2. In Microsoft Excel software, standardization of maximum fluorescence intensities to the basal fluorescence and normalization to the buffer-only control was done to calculate the relative fluorescence changes (ΔF/F).
Initial screening experiments performed in duplicate wells were confirmed by at least one replication and representative traces were selected for display. All dose-response relationships were determined by three independent experiments (biological replicates) performed in duplicates (technical replicates). Threshold concentrations, defined as lowest substance concentrations leading to statistically significant elevated fluorescence changes in receptor-transfected cells compared with empty vector-transfected cells, were determined using SigmaPlot with Student’s t-test to evaluate statistical significance (p < 0.01).

**Q.** Which results are given for `C[C@H](CCC(=O)O)[C@H]1CC[C@H]2[C@@H]3CC[C@@H]4C[C@H](O)CC[C@]4(C)[C@H]3C[C@H](O)[C@]12C` [Deoxycholic Acid, deoxycholic acid]?
**A.** RLU (Time 0 s): 0 RLU; RLU (Time 2 s): 10.4901 RLU; RLU (Time 4 s): 7.695 RLU; RLU (Time 6 s): 13.3996 RLU; RLU (Time 8 s): 21.0752 RLU; RLU (Time 12 s): 15.5762 RLU; RLU (Time 14 s): 3.43 RLU; RLU (Time 16 s): -9.281 RLU; RLU (Time 18 s): 0.8467 RLU; RLU (Time 137.562 s): 460.71 RLU; RLU (Time 143.562 s): 496.814 RLU; RLU (Time 149.562 s): 503.436 RLU; RLU (Time 155.562 s): 499.263 RLU; RLU (Time 161.562 s): 506.022 RLU; RLU (Time 167.562 s): 509.176 RLU; RLU (Time 173.562 s): 514.108 RLU; RLU (Time 179.562 s): 522.581 RLU; RLU (Time 185.562 s): 531.86 RLU; RLU (Time 191.562 s): 528.694 RLU; RLU (Time 197.562 s): 533.421 RLU; RLU (Time 203.562 s): 538.761 RLU; RLU (Time 209.562 s): 521.511 RLU; RLU (Time 215.562 s): 533.378 RLU; RLU (Time 221.562 s): 492.546 RLU; RLU (Time 227.562 s): 477.486 RLU; RLU (Time 233.562 s): 488.911 RLU; RLU (Time 239.562 s): 493.745 RLU; RLU (Time 245.562 s): 495.953 RLU; RLU (Time 293.562 s): 458.186 RLU; RLU (Time 299.562 s): 441.037 RLU; RLU (Time 305.562 s): 416.756 RLU; RLU (Time 311.562 s): 430.852 RLU; RLU (Time 317.562 s): 450.794 RLU; RLU (Time 323.562 s): 427.048 RLU; RLU (Time 329.562 s): 431.797 RLU; RLU (Time 335.562 s): 432.3 RLU; RLU (Time 341.562 s): 422.32 RLU; RLU (Time 347.562 s): 429.258 RLU; RLU (Time 353.562 s): 427.233 RLU; RLU (Time 359.562 s): 399.693 RLU; Activation threshold concentration Tas2r108 (p < 0.01 vs empty vector): 10 µM; RLU (time 18.797 s): 15.4 RLU; RLU (time 20.797 s): -4.333 RLU; RLU (time 22.797 s): -28.7534 RLU; RLU (time 24.797 s): -22.8768 RLU; RLU (time 26.797 s): 16.5718 RLU; RLU (time 28.797 s): 18.9437 RLU; RLU (time 30.797 s): 58.8166 RLU; RLU (time 32.797 s): 83.6402 RLU; RLU (time 34.797 s): 79.9664 RLU; RLU (time 36.797 s): 112.495 RLU; RLU (time 38.797 s): 144 RLU; RLU (time 40.797 s): 169.562 RLU; RLU (time 42.797 s): 181.196 RLU; RLU (time 44.797 s): 204.676 RLU; RLU (time 46.797 s): 240.06 RLU; RLU (time 48.797 s): 220.167 RLU; RLU (time 50.797 s): 217.063 RLU; RLU (time 52.797 s): 250.29 RLU; RLU (time 54.797 s): 263.514 RLU; RLU (time 56.797 s): 298.678 RLU; RLU (time 58.797 s): 286.664 RLU; RLU (time 60.797 s): 326.636 RLU; RLU (time 62.797 s): 300.232 RLU; RLU (time 64.797 s): 322.977 RLU; RLU (time 66.797 s): 299.438 RLU; RLU (time 68.797 s): 333.279 RLU; RLU (time 70.797 s): 356.797 RLU; RLU (time 72.797 s): 351.722 RLU; RLU (time 74.797 s): 354.974 RLU; RLU (time 76.797 s): 350.201 RLU; RLU (time 78.797 s): 373.335 RLU; RLU (time 80.797 s): 363.865 RLU; RLU (time 82.797 s): 378.202 RLU; RLU (time 84.797 s): 377.793 RLU; RLU (time 86.797 s): 374.495 RLU; RLU (time 88.797 s): 427.432 RLU; RLU (time 90.797 s): 391.234 RLU; RLU (time 92.797 s): 431.574 RLU; RLU (time 94.797 s): 429.345 RLU; RLU (time 96.797 s): 437.253 RLU; RLU (time 98.797 s): 431.746 RLU; RLU (time 100.797 s): 440.351 RLU; RLU (time 102.797 s): 434.297 RLU; RLU (time 104.797 s): 432.91 RLU; RLU (time 106.797 s): 451.262 RLU; RLU (time 108.797 s): 460.201 RLU; RLU (time 110.797 s): 466.157 RLU; RLU (time 112.797 s): 486.092 RLU; RLU (time 114.797 s): 411.046 RLU; RLU (time 116.797 s): 482.073 RLU; RLU (time 118.797 s): 468.374 RLU; RLU (time 120.797 s): 468.931 RLU; RLU (time 122.797 s): 478.657 RLU; RLU (time 124.797 s): 472.922 RLU; RLU (time 126.797 s): 476.391 RLU; RLU (time 128.797 s): 502.505 RLU; RLU (time 130.797 s): 473.229 RLU; RLU (time 132.797 s): 511.515 RLU; RLU (time 134.797 s): 493.882 RLU; RLU (time 136.797 s): 440.117 RLU
